The test relates to DU145 (prostate cancer) and MDA.MB213 (Triple Negative breast cancer) cells. The test can be described thus: MTT cell growth inhibition assay on human tumor cell lines. Type of test: cell-based. To be noted: 48 hours exposition; for IC50: read-out: DL50 (lethal dose 50, dose at which there is 50% of cell growth inhibition). From the text:
FIG. 1 the evaluation of the inhibitory activity of CAM2 (a), CAM3 (b) and CAM4 (c) on the cell growth of DU145 cells in presence of different concentrations, determined by MTT assay. The cell viability was expressed as percentage of proliferated cells with respect to the cells treated with the different compounds and the same cells used as control and
FIG. 2 the evaluation of the inhibitory activity of CAM2 (a), CAM3 (b) and CAM4 (c) on the cell growth of MDA.MB231 cells in presence of different concentrations, determined by MTT assay. The cell viability was expressed as percentage of proliferated cells with respect to the cells treated with the different compounds and the same cells used as control.
MDA.MB213—Human cell line of breast cancer acquired by ATCC (American Tissue Cell Colture—ATCC® HTB-26™), triple negative for ER receptor
DU145—Human cell line of prostate cancer acquired by ATCC (American Tissue Cell Colture—ATCC® HTB-81™)
MTT Cell Proliferation Assay Kit—Purchased by TREVIGEN—Catalog #4890-025-K
The compound was dissolved in a solution of DMSO concentrated at 100%, therefrom the dilutions programmed according to the scheme shown in figure A and B are obtained and in 96-multiwell plates 2×10^4 cells are deposited (plated).
After 24 hours the compounds under study in contact with the cells at the pre-established concentrations are used, in order to determine the lethal dose 50, that is the dose thereat there is 50% of cell growth inhibition.
After 48 hours of exposition to our compound, the growth inhibition effect is determined by means of a colorimetric assay.
The MTT assay is a measurement of sensitivity of cell proliferation based upon the decrease in the salt of tetrazolium, 3, [4,5-dimethyithiazol-2-]-2,5-diphenyl-bromide-tetrazolium (MTT).
Changes in the cell proliferative activity caused by our compounds can be quantified with MTT. MTT is reduced to an insoluble colouring agent, by the mitochondrial enzymes associated to the metabolic activity. MTT reduction is mainly due to the glycolytic activity inside the cell associated to the presence of NADH and NADPH.
The compound was dissolved in a solution of DMSO concentrated at 100%, therefrom the dilutions programmed according to the scheme shown in figure A and B are obtained, and in 96-multiwell plates 2×10^4 cells are deposited (plated).
After 24 hours the compounds under study in contact with the cells at pre-established concentrations are used, in order to determine the lethal dose 50, that is the dose thereat there is 50% of cell growth inhibition.
The MTT assay is a measurement of cell proliferation sensitivity based upon the reduction in the salt of tetrazolium, 3, [4,5-dimethylthiazol-2-]-2,5-diphenyl bromide-tetrazolium (MTT). Changes in the cell proliferative activity caused by our compounds can be quantified with MTT. MTT is reduced to an insoluble colouring agent, by the mitochondrial enzymes associated to the metabolic activity. MTT reduction is mainly due to the glycolytic activity inside the cell associated to the presence of NADH and NADPH.
The compound was dissolved in a solution of DMSO concentrated at 100%, therefrom the dilutions programmed according to the scheme shown in A e B are obtained, in 96-multiwell plates 2×10^4 cells are deposited (plated).
MTT assay is a measurement of the cell proliferation sensitivity based upon the reduction in the salt of tetrazolium, 3, [4,5-dimethylthiazol-2-]-2,5-diphenyl bromide-tetrazolium (MTT). Changes in the cell proliferative activity caused by our compounds can be quantified with MTT. MTT is reduced to an insoluble colouring agent, by the mitochondrial enzymes associated to the metabolic activity. MTT reduction is mainly due to the glycolytic activity inside the cell associated to the presence of NADH and NADPH.

Setting [1] is: cell line not specified (DU145 / MDA.MB213).
Where [2] appears, read: 5 μM, cell line not specified (DU145 / MDA.MB213).

The substance [Cp-CH2—C6H5—OCH3)]ScCl2 [CAM3] yielded a growth inhibition (10 μM (higher concentrations), cell line not specified) of 95% and a growth inhibition (lower concentrations (not specified), cell line not specified) of 40%. The “DL50 (lethal dose 50, dose at which there is 50% of cell growth inhibition)” value under setting [1] is given as 5/10.

In the case of [Cp-CH2—C6H5—OCH3]2ScCl [CAM4], the growth inhibition by setting is: under setting [2], 14%; (40 μM (higher concentrations), cell line not specified) 88%. The IC50 under setting [1] was determined as 20 µM.

Take [Cp-CH2—C6H5—OCH3]2YCl [CAM2]: the growth inhibition turned out to be 58% under setting [2] and 95% (20 μM, cell line not specified (DU145 / MDA.MB213)). Further, the IC50 under setting [1] was under 5 µM.

The values above are taken from US10675300B2, “Group 3 metal compounds and use thereof in the treatment of solid tumors” (UNIVERSITÀ DEGLI STUDI DI SALERNO, priority 2016, dated 2020).
